Where two headings read alike, the source gives them in different places.
System: human Pan T cells
Experiment: Human Pan T cell IL-2 ELISA
Format: cell-based
Conditions: read-out: IL-2 release, EC50
Description: A compound was dissolved in DMSO to 10 mM, and then diluted three-fold with DMSO to 9 dosages in a 96-well plate. Then, 10 µL of the diluted compound sample was transferred to a 96-well plate with 90 µL of cell culture medium, and the plate was shaken for 5 minutes. Then, 5 µL of the diluted compound sample was transferred to a 96-well plate with 120 µL of cell culture medium, and the plate was shaken for 5 minutes. According to the experimental design diagram, 50 µL of the diluted compound sample was transferred to a cell plate. Final concentrations of the compound in this assay were 10000.00, 5000, 2500, 1250, 625, 312.5, 156.25, 78.125 and 39.063 nM.
The assay was conducted in a 96-well plate. On the first day of the assay, Anti-CD3 was added to the 96-well plate and incubated in a 4 °C refrigerator overnight. On the second day of the assay, human Pan T cells were recovered, centrifuged and counted. The cell density was adjusted to 1*10^6 cells/ml. Then, 100 µL of cells were added to the 96-well plate washed with PBS and added with Anti-CD3; according to the experimental design diagram, 50 µL of diluted Anti-CD28 and 50 µL of the diluted compound were added to each well, centrifuged, and the cell plate was placed and incubated in an incubator for 48 hours; after 48 hours, the plate was centrifuged and the supernatant was collected for IL-2 ELISA.
The signal value of light absorption was converted into a multiple. Multiple = sample value/the average value of control wells. The average value of control wells refers to the value measured in wells with DMSO added. EC50 values were calculated by XLFit (version 5.3.1.3) in Excel. Equation: Y=Bottom + (Top-Bottom) / (1 + (EC50/X) ^ HillSlope). Table 6. Results of cellular activity of the compounds

[1] = Homo sapiens, T-cell, 48 h, Anti-CD3 and Anti-CD28, supernatant IL-2 ELISA
[2] = Anti-CD3 and Anti-CD28, 48 hours, supernatant IL-2 ELISA

EC50 [1] [nM] | EC50 [2] [nM] | SMILES
50 | – | CC1(C)c2cc(N3CCOCC3)ccc2Nc2c1cc(-c1cnc3n1CCCC3OC1COC1)c1c2C(=O)NC1 (single isomer, unassigned) [Example 220]
6.4 | – | CC1(C)c2cc(N3CCOCC3)ccc2Nc2c1cc(-c1cnc3n1CCCC3O)c1c2C(=O)NC1 (single isomer, unassigned) [Example 227]
– | 11 | CC1(C)c2cc(N3CCOCC3)ccc2Nc2c1cc(-c1cnc3n1CCCC3O)c1c2C(=O)NC1 (single isomer, unassigned) [Example 228]
14 | – | COC1CCn2c(-c3cc4c(c5c3CNC5=O)Nc3ccc(N5CCOCC5)cc3C4(C)C)cnc21 (single isomer, unassigned) [Example 229]
– | 7.6 | COC1CCn2c(-c3cc4c(c5c3CNC5=O)Nc3ccc(N5CCOCC5)cc3C4(C)C)cnc21 (single isomer, unassigned) [Example 230]
10.5 | – | COCC1(O)CCN(c2ccc3c(c2)C(C)(C)c2cc(-c4cnc5n4CCCC5OC)c4c(c2N3)C(=O)NC4)CC1 (single isomer, unassigned) [Example 231]
– | 7.5 | CC1(C)c2cc(N3CCOCC3)ccc2Nc2c1cc(-c1cnc3n1CCC(C(F)F)C3)c1c2C(=O)NC1 (single isomer, unassigned) [Example 239]
– | 26 | CC1(C)c2cc(N3CCOCC3)ccc2Nc2c1cc(-c1cnc3n1CCC(C(F)F)C3)c1c2C(=O)NC1 (single isomer, unassigned) [Example 240]
10 | – | CC1(C)c2cc(N3CCOCC3)ccc2Nc2c1cc(-c1cnc3n1CCC(O)C3)c1c2C(=O)NC1 (single isomer, unassigned) [Example 241]
8.5 | – | CC1(C)c2cc(N3CCOCC3)ccc2Nc2c1cc(-c1cnc3n1CCC(C#N)C3)c1c2C(=O)NC1 (single isomer, unassigned) [Example 242]
13 | – | COC1CCCn2c(-c3cc4c(c5c3CNC5=O)Nc3ccc(N5CCC(O)CC5)cc3C4(C)C)cnc21 (single isomer, unassigned) [Example 243]
9.8 | – | COc1nccn2c(-c3cc4c(c5c3CNC5=O)Nc3ccc(N5CCOCC5C)cc3C4(C)C)cnc12 (single isomer, unassigned) [Example 244]
170 | – | COC1CCCn2c(-c3nc4c(c5c3CNC5=O)Nc3ccc(N5CCOCC5)cc3C4(C)C)cnc21 (single isomer, unassigned) [Example 279]
18 | – | CCOC1CCCn2c(-c3cc4c(c5c3CCNC5=O)Nc3ccc(N5CCOCC5)cc3C4(C)C)cnc21 (single isomer, unassigned) [Example 281]
14.2 | – | Cn1ccc2c(-c3cc4c(c5c3CNC5=O)Nc3ccc(N5CCOCC5)cc3C4(C)C)ccnc21 [Example 42]
22.3 | – | CC1(C)c2cc(N3CCOC(C(C)(C)O)C3)ccc2Nc2c1cc(-c1ccncc1)c1c2C(=O)NC1 (stereo not drawn) [Example 43]
2.47 | – | CN1CCN(c2ccc3c(c2)C(C)(C)c2cc(-c4cnn5cccnc45)c4c(c2N3)C(=O)NC4)CC1 [Example 44]
5.28 | – | CNC1CCN(c2ccc3c(c2)C(C)(C)c2cc(-c4cnn5cccnc45)c4c(c2N3)C(=O)NC4)CC1 [Example 45]
4.62 | – | CC1(C)c2cc(N3CCC(O)CC3)ccc2Nc2c1cc(-c1cnn3cccnc13)c1c2C(=O)NC1 [Example 47]

EC50 [1] [nM] | EC50 [2] [nM] | SMILES
13.5 | – | CC1(C)c2cc(N3CCOCC3)ccc2Nc2c1cc(-c1cnc3n1CCCC3)c1c2C(=O)NC1 [Example 48]
12.7 | – | COCC1(O)CCN(c2ccc3c(c2)C(C)(C)c2cc(-c4cnn5cccnc45)c4c(c2N3)C(=O)NC4)CC1 [Example 49]
5.52 | – | CC1(C)c2cc(N3CCOC(C(C)(C)O)C3)ccc2Nc2c1cc(-c1cnc3c(Cl)cccn13)c1c2C(=O)NC1 (stereo not drawn) [Example 99]
13.1 | – | CC1(C)c2cc(N3CCOC(C(C)(C)O)C3)ccc2Nc2c1cc(-c1cnc3cc(Cl)ccn13)c1c2C(=O)NC1 (stereo not drawn) [Example 100]
5.58 | – | CC1(C)c2cc(N3CCOC(C(C)(C)O)C3)ccc2Nc2c1cc(-c1cnc3cc(C#N)ccn13)c1c2C(=O)NC1 (stereo not drawn) [Example 101]
10.8 | – | COC1CCCn2c(-c3cc4c(c5c3CNC5=O)Nc3ccc(N5CCOC(C(C)(C)O)C5)cc3C4(C)C)cnc21 (stereo not drawn) [Example 102]
10.4 | – | CC1CCCn2c(-c3cc4c(c5c3CNC5=O)Nc3ccc(N5CCOC(C(C)(C)O)C5)cc3C4(C)C)cnc21 (stereo not drawn) [Example 103]
6.44 | – | Cc1c(-c2cc3c(c4c2CNC4=O)Nc2ccc(N4CCOC(C(C)(C)O)C4)cc2C3(C)C)cnc2c1NCCO2 (stereo not drawn) [Example 104]
11.6 | – | Cn1c(-c2cc3c(c4c2CNC4=O)Nc2ccc(N4CCOC(C(C)(C)O)C4)cc2C3(C)C)cnc1C1CC1 (stereo not drawn) [Example 105]
5.58 | – | CC1(C)c2cc(N3CCOC(CO)C3)ccc2Nc2c1cc(-c1cnc3cc(F)ccn13)c1c2C(=O)NC1 (stereo not drawn) [Example 108]
9.18 | – | CC1(C)c2cc(N3CCOC(C(C)(C)O)C3)ccc2Nc2c1cc(-c1cnn3cc(F)ccc13)c1c2C(=O)NC1 (stereo not drawn) [Example 109]
15.9 | – | COc1ccn2c(-c3cc4c(c5c3CNC5=O)Nc3ccc(N5CCOC(C(C)(C)O)C5)cc3C4(C)C)cnc2c1 (stereo not drawn) [Example 110]
30.8 | – | CC1(C)c2cc(N3CCOC(C(C)(C)O)C3)ccc2Nc2c1cc(-c1cncc3c1OCCN3)c1c2C(=O)NC1 (stereo not drawn) [Example 111]
4.67 | – | CC1(C)c2cc(N3CCOC(C(C)(C)O)C3)ccc2Nc2c1cc(-c1cnc3cnccn13)c1c2C(=O)NC1 (stereo not drawn) [Example 112]
14 | – | CC1(C)c2cc(N3CCOC(C(C)(C)O)C3)ccc2Nc2c1cc(-c1cnc3cc(C(F)F)ccn13)c1c2C(=O)NC1 (stereo not drawn) [Example 113]
10.9 | – | COc1nccn2c(-c3cc4c(c5c3CNC5=O)Nc3ccc(N5CCOC(C(C)(C)O)C5)cc3C4(C)C)cnc12 (stereo not drawn) [Example 114]
91.5 | – | CC1(C)c2cc(N3CC(CO)OCC3=O)ccc2Nc2c1cc(-c1cnn3cccnc13)c1c2C(=O)NC1 (stereo not drawn) [Example 115]
65.2 | – | CC1(C)c2cc(-c3cnn4cccnc34)c3c(c2Nc2cc(F)c(N4CCOCC4)c(F)c21)C(=O)NC3 [Example 116]
7.32 | – | CC1(C)c2cc(N3CCOC(CO)C3)ccc2Nc2c1cc(-c1cnn3cccnc13)c1c2C(=O)NC1 (stereo not drawn) [Example 118]

EC50 [1] [nM] | EC50 [2] [nM] | SMILES
8.52 | – | Cn1cnc2c(-c3cc4c(c5c3CNC5=O)Nc3ccc(N5CCOC(C(C)(C)O)C5)cc3C4(C)C)cncc21 (stereo not drawn) [Example 119]
4.3 | – | CC1(C)c2cc(N3CCOC(C(C)(C)O)C3)ccc2Nc2c1cc(-c1cnn3ccccc13)c1c2C(=O)NC1 (stereo not drawn) [Example 122]
20.3 | – | CC1(C)c2cc(N3CCOC(C(C)(C)O)C3)ccc2Nc2c1cc(-c1cnc3n1CCCCC3)c1c2C(=O)NC1 (stereo not drawn) [Example 123]
15.7 | – | CC1(C)c2cc(-c3cnc4cc(F)ccn34)c3c(c2Nc2ccc(N4CCOC(C(C)(C)O)C4)c(F)c21)C(=O)NC3 (stereo not drawn) [Example 124]
8.27 | – | COCC1CN(c2ccc3c(c2)C(C)(C)c2cc(-c4cnc5c(F)c(C)ccn45)c4c(c2N3)C(=O)NC4)CCO1 (stereo not drawn) [Example 131]
2.76 | – | CC1(C)c2cc(N3CCOCC3)ccc2Nc2c1cc(-c1cnc3cnccn13)c1c2C(=O)NC1 [Example 156]
12.6 | – | CCOc1nccn2c(-c3cc4c(c5c3CNC5=O)Nc3ccc(N5CCOCC5)cc3C4(C)C)cnc12 [Example 160]
6.36 | – | CC1(C)c2cc(N3CCOCC3)ccc2Nc2c1cc(-c1cnc3cc(C(F)F)ccn13)c1c2C(=O)NC1 [Example 161]
17 | – | CCc1nccn2c(-c3cc4c(c5c3CNC5=O)Nc3ccc(N5CCOCC5)cc3C4(C)C)cnc12 [Example 164]
4.8 | – | CC1(C)c2cc(N3CCOCC3)ccc2Nc2c1cc(-c1cnc3cc(C#N)ccn13)c1c2C(=O)NC1 [Example 165]
6.4 | – | CC1(C)c2cc(N3CCO[C@@H](C(C)(C)O)C3)ccc2Nc2c1cc(-c1cnn3cc(C(F)F)ccc13)c1c2C(=O)NC1 [Example 169]
6.3 | – | COc1ccnc2c(-c3cc4c(c5c3CNC5=O)Nc3ccc(N5CCO[C@@H](C(C)(C)O)C5)cc3C4(C)C)cnn12 [Example 171]
8.1 | – | CC1(C)c2cc(N3CCOCC3)ccc2Nc2c1cc(-c1cnc3c(OC(F)F)nccn13)c1c2C(=O)NC1 [Example 172]
3.8 | – | Cc1nccn2c(-c3cc4c(c5c3CNC5=O)Nc3ccc(N5CCOCC5)cc3C4(C)C)cnc12 [Example 173]
39 | – | Cn1c(-c2cc3c(c4c2CNC4=O)Nc2ccc(N4CCO[C@@H](C(C)(C)O)C4)cc2C3(C)C)cnc1N1CCOCC1 [Example 174]
6.9 | – | CC1(C)c2cc(N3CCO[C@@H](C(C)(C)O)C3)ccc2Nc2c1cc(-c1cnc3c(F)c(C#N)ccn13)c1c2C(=O)NC1 [Example 179]
14 | – | CC1(C)c2cc(N3CCOCC3)ccc2Nc2c1cc(-c1cnc3c(OC4COC4)nccn13)c1c2C(=O)NC1 [Example 184]
2.2 | – | Cc1ccn2c(-c3cc4c(c5c3CNC5=O)Nc3ccc(N5CCOCC5)cc3C4(C)C)cnc2n1 [Example 185]
7.9 | – | COc1ccn2c(-c3cc4c(c5c3CNC5=O)Nc3ccc(N5CCOCC5)cc3C4(C)C)cnc2c1 [Example 186]
